Experimental data taken from patent publication US11753407B2, “Compounds for treating spinal muscular atrophy” (PTC Therapeutics, Inc., priority 2012, dated 2023).

Tests used:
[1] = system: SMN2 minigene mRNA (SMN2-A minigene) in HEK293H cells; assay: SMN2 minigene mRNA splicing RT-qPCR assay in cultured cells; assay type: cell-based, human; settings: Homo sapiens, HEK293-H; concentration increasing full length SMN2 mRNA 1.5-fold relative to vehicle-treated cells; HEK293H cells with SMN2-A minigene, 24 hours, 7-point concentration data; read-out: EC1.5x for production of full length SMN2 mRNA
How it was run: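 Cells are seeded, left to attach 4-6 h, then dosed with test compound across seven concentrations and incubated 24 h. Lysates undergo RT-qPCR with primers/probe specific to the exon 7-containing minigene transcript, co-amplified with GAPDH. Fold change over vehicle is calculated, and EC1.5× marks the 1.5-fold point.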

[2] = system: Smn protein in SMA patient fibroblast cells (GM03813); assay: Smn protein assay in cultured cells (SMN HTRF); assay type: cell-based, human; settings: SMA patient fibroblast cells, 48 hours; for EC1.5x for Smn protein expression: 7-point concentration curve, SMN HTRF, concentration producing 1.5 times Smn protein vs DMSO vehicle control; for maximum fold (Fold) increase of Smn protein: 7-point concentration data, fold relative to vehicle control
How it was run: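 Patient-derived SMA fibroblasts are plated, given compound for 48 h, then lysed in RIPA buffer with protease inhibitors. Lysate Smn is detected by an anti-SMN d2/kryptate HTRF pair incubated overnight. The normalized ΔF is divided by the vehicle ΔF to give fold change, from which EC1.5× and maximum fold are taken.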

SMILES: Cc1cn2nc(-c3cc(=O)n4cc(N5C[C@@H](C)N(C)[C@@H](C)C5)ccc4n3)cc2c(C)n1 [Compound 259, 2-(4,6-dimethylpyrazolo[1,5-a]pyrazin-2-yl)-7-[(3R,5S)-3,4,5-trimethylpiperazin-1-yl]-4H-pyrido[1,2-a]pyrimidin-4-one]
- EC (1.5-fold increase) [1]: < 0.1 µM
- EC1.5x for Smn protein expression [2]: *** (an EC1.5× between >0.3 μM and ≤1 μM is indicated by three stars (***))
- maximum fold (Fold) increase of Smn protein [2]: **** (a fold increase between >1.5 and ≤1.65 is indicated by four stars (****))
- melting point: 254 to 260 °C

SMILES: COc1ccc(-c2cc(=O)n3cc(N4C[C@H]5CN(C)C[C@H]5C4)cc(C)c3n2)cc1OC [Compound 260, 2-(3,4-dimethoxyphenyl)-9-methyl-7-[(3aR,6aS)-5-methylhexahydropyrrolo[3,4-c]pyrrol-2(1H)-yl]-4H-pyrido[1,2-a]pyrimidin-4-one]
- EC (1.5-fold increase) [1]: 0.1 to 0.3 µM
- EC1.5x for Smn protein expression [2]: ** (an EC1.5× between >1 μM and ≤3 μM is indicated by two stars (**))
- maximum fold (Fold) increase of Smn protein [2]: *** (a fold increase between >1.35 and ≤1.5 is indicated by three stars (***))
- melting point: 212 to 218 °C

SMILES: COc1ccc(-c2cc(=O)n3cc(N4CCC(N(C)C)CC4)cc(C)c3n2)cc1OC [Compound 261, 2-(3,4-dimethoxyphenyl)-7-[4-(dimethylamino)piperidin-1-yl]-9-methyl-4H-pyrido[1,2-a]pyrimidin-4-one]
- EC (1.5-fold increase) [1]: < 0.1 µM
- EC1.5x for Smn protein expression [2]: **** (an EC1.5x≤0.3 μM is indicated by four stars (****))
- maximum fold (Fold) increase of Smn protein [2]: **** (a fold increase between >1.5 and ≤1.65 is indicated by four stars (****))
- melting point: 167 to 171 °C

SMILES: COc1ccc(-c2cc(=O)n3cc(C4=C[C@H]5CC[C@@H](C4)N5)ccc3n2)cc1OC [Compound 262, 7-[(1R,5S)-8-azabicyclo[3.2.1]oct-2-en-3-yl]-2-(3,4-dimethoxyphenyl)-4H-pyrido[1,2-a]pyrimidin-4-one]
- EC (1.5-fold increase) [1]: 0.1 to 0.3 µM
- EC1.5x for Smn protein expression [2]: *** (an EC1.5× between >0.3 μM and ≤1 μM is indicated by three stars (***))
- maximum fold (Fold) increase of Smn protein [2]: ***** (a fold increase >1.65 is indicated by five stars (*****))
- melting point: 191 to 194 °C

SMILES: Cc1nc2ccc(-c3cc(=O)n4cc(N5CC[C@@H](N(C)C)C5)ccc4n3)cc2o1 [Compound 264, 7-[(3R)-3-(dimethylamino)pyrrolidin-1-yl]-2-(2-methyl-1,3-benzoxazol-6-yl)-4H-pyrido[1,2-a]pyrimidin-4-one]
- EC (1.5-fold increase) [1]: < 0.1 µM
- EC1.5x for Smn protein expression [2]: **** (an EC1.5x≤0.3 μM is indicated by four stars (****))
- maximum fold (Fold) increase of Smn protein [2]: ***** (a fold increase >1.65 is indicated by five stars (*****))
- melting point: 203 to 207 °C

SMILES: CCc1nc2ccc(-c3cc(=O)n4cc(N5CCNCC5)ccc4n3)cc2o1 [Compound 265, 2-(2-ethyl-1,3-benzoxazol-6-yl)-7-(piperazin-1-yl)-4H-pyrido[1,2-a]pyrimidin-4-one]
- EC (1.5-fold increase) [1]: 1 to 3 µM
- maximum fold (Fold) increase of Smn protein [2]: *** (a fold increase between >1.35 and ≤1.5 is indicated by three stars (***))
- melting point: 170 to 175 °C

SMILES: CCc1nc2ccc(-c3cc(=O)n4cc(N5CCN[C@@H](C)C5)ccc4n3)cc2o1 [Compound 266, 2-(2-ethyl-1,3-benzoxazol-6-yl)-7-[(3S)-3-methylpiperazin-1-yl]-4H-pyrido[1,2-a]pyrimidin-4-one]
- EC (1.5-fold increase) [1]: 1 to 3 µM
- maximum fold (Fold) increase of Smn protein [2]: ** (a fold increase between >1.2 and ≤1.35 is indicated by two stars (**))
- melting point: 168 to 170 °C

SMILES: Cc1nc2ccc(-c3cc(=O)n4cc(N5C[C@H]6CN(C)C[C@H]6C5)ccc4n3)cc2o1 [Compound 267, 2-(2-methyl-1,3-benzoxazol-6-yl)-7-[(3aR,6aS)-5-methylhexahydropyrrolo[3,4-c]pyrrol-2(1H)-yl]-4H-pyrido[1,2-a]pyrimidin-4-one]
- EC (1.5-fold increase) [1]: < 0.1 µM
- EC1.5x for Smn protein expression [2]: **** (an EC1.5x≤0.3 μM is indicated by four stars (****))
- maximum fold (Fold) increase of Smn protein [2]: ***** (a fold increase >1.65 is indicated by five stars (*****))
- melting point: 200 to 204 °C

SMILES: Cc1cn2cc(-c3ccc4nc(N5CCNCC5)cc(=O)n4c3)cc(F)c2n1 [Compound 268, 7-(8-fluoro-2-methylimidazo[1,2-a]pyridin-6-yl)-2-(piperazin-1-yl)-4H-pyrido[1,2-a]pyrimidin-4-one]
- EC (1.5-fold increase) [1]: < 0.1 µM
- EC1.5x for Smn protein expression [2]: **** (an EC1.5x≤0.3 μM is indicated by four stars (****))
- maximum fold (Fold) increase of Smn protein [2]: ***** (a fold increase >1.65 is indicated by five stars (*****))
- melting point: 308 °C (dec.)

SMILES: Cc1cn2cc(-c3cc(=O)n4cc(N5CCN6CCC[C@H]6C5)ccc4n3)cc(F)c2n1 [Compound 271, 2-(8-fluoro-2-methylimidazo[1,2-a]pyridin-6-yl)-7-[(8aS)-hexahydropyrrolo[1,2-a]pyrazin-2(1H)-yl]-4H-pyrido[1,2-a]pyrimidin-4-one]
- EC (1.5-fold increase) [1]: < 0.1 µM
- EC1.5x for Smn protein expression [2]: **** (an EC1.5x≤0.3 μM is indicated by four stars (****))
- maximum fold (Fold) increase of Smn protein [2]: ***** (a fold increase >1.65 is indicated by five stars (*****))
- melting point: 270 to 274 °C

SMILES: Cc1cn2cc(-c3cc(=O)n4cc(N5CCN6CCC[C@@H]6C5)ccc4n3)cc(F)c2n1 [Compound 272, 2-(8-fluoro-2-methylimidazo[1,2-a]pyridin-6-yl)-7-[(8aR)-hexahydropyrrolo[1,2-a]pyrazin-2(1H)-yl]-4H-pyrido[1,2-a]pyrimidin-4-one]
- EC (1.5-fold increase) [1]: < 0.1 µM
- EC1.5x for Smn protein expression [2]: **** (an EC1.5x≤0.3 μM is indicated by four stars (****))
- maximum fold (Fold) increase of Smn protein [2]: ***** (a fold increase >1.65 is indicated by five stars (*****))
- melting point: 277 to 280 °C

SMILES: Cc1cn2cc(-c3cc(=O)n4cc(N5CC[C@@H](N(C)C)C5)ccc4n3)cc(F)c2n1 [Compound 274, 7-[(3R)-3-(dimethylamino)pyrrolidin-1-yl]-2-(8-fluoro-2-methylimidazo[1,2-a]pyridin-6-yl)-4H-pyrido[1,2-a]pyrimidin-4-one]
- EC (1.5-fold increase) [1]: < 0.1 µM
- EC1.5x for Smn protein expression [2]: **** (an EC1.5x≤0.3 μM is indicated by four stars (****))
- maximum fold (Fold) increase of Smn protein [2]: ***** (a fold increase >1.65 is indicated by five stars (*****))
- melting point: 300 °C (dec.)

SMILES: Cc1cn2cc(-c3cc(=O)n4cc(N5CC[C@H](N(C)C)C5)ccc4n3)cc(F)c2n1 [Compound 275, 7-[(3S)-3-(dimethylamino)pyrrolidin-1-yl]-2-(8-fluoro-2-methylimidazo[1,2-a]pyridin-6-yl)-4H-pyrido[1,2-a]pyrimidin-4-one]
- EC (1.5-fold increase) [1]: < 0.1 µM
- EC1.5x for Smn protein expression [2]: **** (an EC1.5x≤0.3 μM is indicated by four stars (****))
- maximum fold (Fold) increase of Smn protein [2]: ***** (a fold increase >1.65 is indicated by five stars (*****))
- melting point: 294 to 297 °C

SMILES: COc1ccc(-c2ccc3nc(N4CC[C@@H](N(C)C)C4)cc(=O)n3c2)cc1F [Compound 277, 2-[(3R)-3-(dimethylamino)pyrrolidin-1-yl]-7-(3-fluoro-4-methoxyphenyl)-4H-pyrido[1,2-a]pyrimidin-4-one]
- EC (1.5-fold increase) [1]: 1 to 3 µM
- maximum fold (Fold) increase of Smn protein [2]: *** (a fold increase between >1.35 and ≤1.5 is indicated by three stars (***))
- melting point: 167 to 170 °C

SMILES: COc1ccc(-c2ccc3nc(N4CC[C@H](N(C)C)C4)cc(=O)n3c2)cc1F [Compound 278, 2-[(3S)-3-(dimethylamino)pyrrolidin-1-yl]-7-(3-fluoro-4-methoxyphenyl)-4H-pyrido[1,2-a]pyrimidin-4-one]
- EC (1.5-fold increase) [1]: 1 to 3 µM
- maximum fold (Fold) increase of Smn protein [2]: ** (a fold increase between >1.2 and ≤1.35 is indicated by two stars (**))
- melting point: 167 to 169 °C

SMILES: COc1ccc(-c2cc(=O)n3cc(N4C[C@H]5CN(CCO)C[C@H]5C4)ccc3n2)cc1F [Compound 279, 2-(3-fluoro-4-methoxyphenyl)-7-[(3aR,6aS)-5-(2-hydroxyethyl)hexahydropyrrolo[3,4-c]pyrrol-2(1H)-yl]-4H-pyrido[1,2-a]pyrimidin-4-one]
- EC (1.5-fold increase) [1]: 0.1 to 0.3 µM
- maximum fold (Fold) increase of Smn protein [2]: ** (a fold increase between >1.2 and ≤1.35 is indicated by two stars (**))
- melting point: 180 to 186 °C

SMILES: COc1ccc(-c2cc(=O)n3cc(N4C[C@@H]5CCN(C)[C@@H]5C4)ccc3n2)cc1F [Compound 280, 2-(3-fluoro-4-methoxyphenyl)-7-[(3aS,6aS)-1-methylhexahydropyrrolo[3,4-b]pyrrol-5(1H)-yl]-4H-pyrido[1,2-a]pyrimidin-4-one]
- EC (1.5-fold increase) [1]: 1 to 3 µM
- maximum fold (Fold) increase of Smn protein [2]: * (A maximum fold increase of ≤1.2 is indicated by one star (*))
- melting point: 207 to 211 °C

SMILES: COc1ccc(-c2cc(=O)n3cc(N4C[C@@H]5CN(C(C)C)C[C@@H]5C4)ccc3n2)cc1F [Compound 281, 2-(3-fluoro-4-methoxyphenyl)-7-[(3aR,6aS)-5-(propan-2-yl)hexahydropyrrolo[3,4-c]pyrrol-2(1H)-yl]-4H-pyrido[1,2-a]pyrimidin-4-one]
- EC (1.5-fold increase) [1]: 0.1 to 0.3 µM
- maximum fold (Fold) increase of Smn protein [2]: ** (a fold increase between >1.2 and ≤1.35 is indicated by two stars (**))
- melting point: 189 to 192 °C
